Experimental data as given in patent publication US20210386729A1, “METHODS FOR TREATING LIVER DISORDERS USING FXR AGONISTS” (NOVARTIS AG, priority 2016, published 2021).
≈ marks a conversion by molar mass, not a printed value. Entries after “also recorded” stand apart in the source; their conditions may differ. Like-named read-outs stand apart in the source and are kept apart here.

How the values were obtained:
FGF15 = assay: Serum FGF15 (MSD assay) in chronic rat ANIT-induced cholestasis model; type: in vivo; details: chronic treatment rat ANIT model
Procedure: Serum FGF15 levels were quantified using an FGF15 Meso Scale Discovery (MSD) assay. Mouse FGF15 antibody from R&D Systems (AF6755) was used both as capture and detection antibody in the assay. MSD SULFO-TAG NHS-Ester was used to label the FGF15 antibody. MSD standard 96-well plates were coated with the FGF15 capture antibody and the plates were blocked with MSD Blocker A (R93AA-2). After washing the plate with PBS+0.05% Tween 20, MSD diluent 4 was dispensed into each well and incubated for 30 min. 25 μl of calibrator dilutions or samples (serum or EDTA plasma) were dispensed into each well and incubated with shaking at RT. After washing, detection antibody was added and incubated with shaking for 1 h at RT. After washing and the addition of MSD Read buffer (R92TC-2), the plate was read on an MSD SECTOR Imager 6000. Plots of the standard curve and unknown samples were calculated using MSD data analysis software.
Activation of FXR in the ileum induces the expression of fibroblast growth factor 15 (FGF15 in rodent; FGF19 in human), a hormone that is secreted in the portal blood and signals to the liver to repress Cyp7a1 expression synergistically with SHP. The direct FXR-dependent induction of FGF15/19 along with FGF15/19's anti-cholestatic properties makes it a convenient serum biomarker for detecting target engagement of FXR agonists.

[1] = test system: rat ANIT-induced cholestasis chronic treatment model; assay: PK/PD modeling of effective exposure in rat ANIT-induced cholestasis chronic treatment model; type: in vivo
Procedure: Male Wistar rats were treated with ANIT (0.1% ANIT in chow diet) for 2 weeks. […] The serum samples were collected on day 14 for analysis of biomarkers of hepatobiliary injury (including ALT, AST, bilirubin and bile acids). The PK samples (pre-dose, 0.5, 1, 3, 7, 10 and 24 h, n=3/dose group) were taken on day 13 (at steady-state). […] The mean biomarker data were compared to the PK data (average concentration at each dose) for the modeling. The IC80 was determined using the Inhibitory effect Imax model (effect C=0 at Imax, C=infinity at E0) built in Phoenix WinNonlin 6.3 software. […] Therefore, we chose to use a mean of the IC80 for the four biomarkers (total bilirubin, total bile acids, ALT and AST) as the IC80 for efficacy in this model. From these studies, the IC80 of LJN452 was 0.127 ng/ml and the corresponding AUC0-24 h was 3.05 ng*h/ml (Table 1), and the corresponding efficacious dose is approximately 0.01 mg/kg (based on Table 1 and Table 2).
E0, effect at zero drug concentration; Imax, maximal drug effect; IC80, drug concentration producing 80% of the maximum effect.
The PK samples (pre-dose, 0.5, 1, 3, 7, 10 and 24 h, n=3/dose group) were taken on day 13 (at steady-state). AUC0-24 h was determined using Phoenix WinNonlin 6.3 software and the average concentrations were calculated from mean of AUC0-24 h at each dose (divided the AUC0-24 h by 24 h). The individual biomarker data were compared to the PK data (average concentration at each dose) for the modeling. Since the lowest dose (0.01 mg/kg) already approached maximal efficacy, the IC80 was chosen as the measurement of the efficacious exposure (Table 1). The IC80 was determined using the Inhibitory effect Imax model (effect C=0 at Imax, C=infinity at E0) built in Phoenix WinNonlin 6.3 software.
E0: effect at zero drug concentration; Imax: maximal drug effect IC80, drug concentration producing 80% of the maximum effect.

[2] = Multiple oral dose plasma pharmacokinetics in healthy subjects; type: in vivo, human; details: for Cmax / AUC / Tmax: human, plasma
[3] = Food effect (high-fat meal vs fasted) on pharmacokinetics; type: in vivo, human; details: taken with a high-fat meal
Procedure: To avoid variability in drug exposure, it is recommended that throughout the treatment period, patients will be directed to take study drug at home with ˜240 mL (8 ounces) of water in the morning in a fasting state, at least 30 min prior to the first beverage apart from water and 60 min prior to first meal of the day, preferably at the same time of the day.

[4] = Safety and tolerability in healthy subjects; type: in vivo, human
FGF19 = details: healthy subjects, single and repeated dosing
[5] = effect at zero drug concentration, 2-week rat ANIT model, serum
[6] = maximal drug effect, 2-week rat ANIT model, serum
[7] = healthy subjects, 10 μg qd, Day 1, plasma, mean
[8] = healthy subjects, 10 μg qd, Day 13, plasma, mean
[9] = healthy subjects, 30 μg qd, Day 1, plasma, mean
[10] = healthy subjects, 30 μg qd, Day 13, plasma, mean
[11] = healthy subjects, 60 μg qd, Day 1, plasma, mean
[12] = healthy subjects, 60 μg qd, Day 13, plasma, mean
[13] = healthy subjects, 100 μg qd, Day 1, plasma, mean
[14] = healthy subjects, 100 μg qd, Day 13, plasma, mean
[15] = clinical study in healthy subjects

Compound: O=C(O)c1cc(F)c2nc(N3C4CC[C@H]3CC(OCc3c(-c5ccccc5OC(F)(F)F)noc3C3CC3)C4)sc2c1 (stereo partly drawn) [Compound A]
- serum FGF15 levels (FGF15): stimulated serum FGF15 expression; also recorded: Significant dose-dependent induction
- Mean (efficacious AUC0-24 h) ([1]; AUC0-24 h corresponding to mean IC80, rat ANIT model): 3.05 ng·h/mL
- IC80 ([1]; drug concentration producing 80% of the maximum effect, rat ANIT model, read-out: IC80, ALT): 0.054 ng/mL (≈ 0.0895 nM)
- IC80 ([1]; drug concentration producing 80% of the maximum effect, rat ANIT model, read-out: IC80, AST): 0.076 ng/mL (≈ 0.126 nM)
- IC80 ([1]; drug concentration producing 80% of the maximum effect, rat ANIT model, read-out: IC80, Total bile acids): 0.155 ng/mL (≈ 0.257 nM)
- IC80 ([1]; drug concentration producing 80% of the maximum effect, rat ANIT model, read-out: IC80, Total bilirubin): 0.223 ng/mL (≈ 0.369 nM)
- E0, ALT [1, 5]: 138.2 U/L
- E0, AST [1, 5]: 272.8 U/L
- E0, Total bile acids [1, 5]: 147.8 µmol/L
- E0, Total bilirubin [1, 5]: 2.3 mg/dL
- Imax, ALT [1, 6]: 84.2 U/L
- Imax, AST [1, 6]: 140.3 U/L
- Imax, Total bile acids [1, 6]: 125.5 µmol/L
- Imax, Total bilirubin [1, 6]: 2.0 mg/dL
- IC80 ([1]; mean of IC80 for total bilirubin, total bile acids, ALT and AST, rat ANIT model, read-out: Mean (IC80)): 0.127 ng/mL (≈ 0.21 nM)
- corresponding efficacious dose ([1]; rat ANIT model, based on Table 1 and Table 2): approximately 0.01 mg/kg
- Racc [2, 7]: 1.00
- Tlast [2, 7]: 23.9 h
- Racc [2, 8]: 1.87
- Tlast [2, 8]: 23.6 h
- Racc [2, 9]: 1.00
- Tlast [2, 9]: 23.9 h
- Racc [2, 10]: 1.21
- Tlast [2, 10]: 23.6 h
- Racc [2, 11]: 1.00
- Tlast [2, 11]: 23.9 h
- Racc [2, 12]: 1.66
- Tlast [2, 12]: 22.3 h
- Racc [2, 13]: 1.00
- Tlast [2, 13]: 23.9 h
- Racc [2, 14]: 1.41
- Tlast [2, 14]: 23.6 h
- Cmax ([2]; oral, 10 μg, average Cmax at day 13 for a dose level of 10 μg, exposures for the doses 10-100 μg normalized to 10 μg): 0.32 ng/mL
- AUC ([2]; oral, 10 μg, exposures for the doses 10-100 μg normalized to 10 μg, read-out: average AUCtau at day 13 for a dose level of 10 μg): 4.84 ng·h/mL
- AUC ([2]; oral, 10 ug, healthy subjects, 10 μg qd, Day 1, plasma, mean, read-out: AUCtau): 2.88 ng·h/mL
- Cmax ([2]; oral, 10 ug, healthy subjects, 10 μg qd, Day 1, plasma, mean, read-out: Cmax): 0.212 ng/mL
- Tmax ([2]; oral, 10 ug, healthy subjects, 10 μg qd, Day 1, plasma, median, read-out: Tmax): 4 h
- AUC ([2]; oral, 10 ug, healthy subjects, 10 μg qd, Day 13, plasma, mean, read-out: AUCtau): 4.88 ng·h/mL
- Cmax ([2]; oral, 10 ug, healthy subjects, 10 μg qd, Day 13, plasma, mean, read-out: Cmax): 0.319 ng/mL
- Tmax ([2]; oral, 10 ug, healthy subjects, 10 μg qd, Day 13, plasma, median, read-out: Tmax): 4 h
- AUC ([2]; oral, 30 ug, healthy subjects, 30 μg qd, Day 1, plasma, mean, read-out: AUCtau): 11.7 ng·h/mL
- Cmax ([2]; oral, 30 ug, healthy subjects, 30 μg qd, Day 1, plasma, mean, read-out: Cmax): 0.894 ng/mL
- Tmax ([2]; oral, 30 ug, healthy subjects, 30 μg qd, Day 1, plasma, median, read-out: Tmax): 6 h
- AUC ([2]; oral, 30 ug, healthy subjects, 30 μg qd, Day 13, plasma, mean, read-out: AUCtau): 14 ng·h/mL
- Cmax ([2]; oral, 30 ug, healthy subjects, 30 μg qd, Day 13, plasma, mean, read-out: Cmax): 0.943 ng/mL
- Tmax ([2]; oral, 30 ug, healthy subjects, 30 μg qd, Day 13, plasma, median, read-out: Tmax): 4 h
- AUC ([2]; oral, 60 ug, healthy subjects, 60 μg qd, Day 1, plasma, mean, read-out: AUCtau): 16.2 ng·h/mL
- Cmax ([2]; oral, 60 ug, healthy subjects, 60 μg qd, Day 1, plasma, mean, read-out: Cmax): 1.22 ng/mL
- Tmax ([2]; oral, 60 ug, healthy subjects, 60 μg qd, Day 1, plasma, median, read-out: Tmax): 4 h
- AUC ([2]; oral, 60 ug, healthy subjects, 60 μg qd, Day 13, plasma, mean, read-out: AUCtau): 25.3 ng·h/mL
- Cmax ([2]; oral, 60 ug, healthy subjects, 60 μg qd, Day 13, plasma, mean, read-out: Cmax): 1.61 ng/mL
- Tmax ([2]; oral, 60 ug, healthy subjects, 60 μg qd, Day 13, plasma, median, read-out: Tmax): 4 h
- AUC ([2]; oral, 100 ug, healthy subjects, 100 μg qd, Day 1, plasma, mean, read-out: AUCtau): 30.3 ng·h/mL
- Cmax ([2]; oral, 100 ug, healthy subjects, 100 μg qd, Day 1, plasma, mean, read-out: Cmax): 2.4 ng/mL
- Tmax ([2]; oral, 100 ug, healthy subjects, 100 μg qd, Day 1, plasma, median, read-out: Tmax): 4 h
- AUC ([2]; oral, 100 ug, healthy subjects, 100 μg qd, Day 13, plasma, mean, read-out: AUCtau): 50.2 ng·h/mL
- Cmax ([2]; oral, 100 ug, healthy subjects, 100 μg qd, Day 13, plasma, mean, read-out: Cmax): 3.47 ng/mL
- Tmax ([2]; oral, 100 ug, healthy subjects, 100 μg qd, Day 13, plasma, median, read-out: Tmax): 4 h
- Tmax ([2]; po, once daily oral dosing 10-100 μg, fasted, post-dose, read-out: Tmax range): 3 to 10 h
- Tmax ([2]; po, once daily oral dosing for 13 days, fasted, Day 13, across all doses, read-out: median Tmax): 4 h
- dose proportionality of Cmax and AUCtau ([2]; once daily doses for 13 days, 10-100 μg): approximately dose-proportional increase
- time to steady-state ([2]; once daily oral dosing, trough levels): ≤ 4 days
- Tmax ([3]; human, plasma, oral, read-out: median Tmax): 9 h
- increase of mean AUCinf compared to the fasted state [3]: approximately 60%
- increase of mean Cmax compared to the fasted state [3]: approximately 60%
- elevation of transaminases (ALT and AST), number of subjects ([4]; 100 μg repeated daily): 3 subjects
- ALP or bilirubin ([4]; 100 μg repeated daily, any subject): no elevation
- time for elevated ALT to resolve to within normal levels ([4]; 100 μg, without intervention): ≤ 14 days
- adverse events related to itch [4, 15]: no adverse events related to itch
- physical exam, vital signs or ECGs [4, 15]: No significant findings
- tolerability ([4]; repeated daily administration, doses up to and including 60 μg): well tolerated
- BSEP gene expression levels (FXR target genes; rat liver): significant, dose-dependent increases
- SHP gene expression levels (FXR target genes; rat liver): significant, dose-dependent increases
- estimated effective dose (mean ED and median ED) (FXR target genes; rats treated two weeks, FXR target gene induction/repression in liver and ileum, day 14): approximately 0.01 mg/kg
- FGF19 response to dose (FGF19): Dose-dependent increases; also recorded: continues to rise with increasing Compound A doses beyond 100 μg
